According to patent US4118561A, “7-(Substituted)-7H-pyrrolo[3,2-f]quinazoline-1,3-diamines” (priority 1977, dated 1978):
Converted amounts (≈) assume the structure as drawn.

Legend:
[1] = tested on: S. paratyphi 11737; assay: In vitro antibacterial activity (MIC), S. paratyphi 11737; assay type: cell-based; conditions: Salmonella enterica, 18 h
[2] = tested on: E. coli 9637; assay: In vitro antibacterial activity (MIC), E. coli 9637; conditions: Escherichia coli, 9637, 18 h
[3] = tested on: S. aureus Smith; assay: In vitro antibacterial activity (MIC), S. aureus Smith; conditions: Staphylococcus aureus, 18 h
[4] = tested on: S. aureus 53-180; assay: In vitro antibacterial activity (MIC), S. aureus 53-180; conditions: Staphylococcus aureus, 53180, 18 h
[5] = tested on: P. vulgaris 6896; assay: In vitro antibacterial activity (MIC), P. vulgaris 6896; conditions: Proteus vulgaris, 6896, 18 h
[6] = tested on: N. catarrhalis 8193; assay: In vitro antibacterial activity (MIC), N. catarrhalis 8193; conditions: 18 h
[7] = tested on: K. pneumoniae 10031; assay: In vitro antibacterial activity (MIC), K. pneumoniae 10031; conditions: Klebsiella pneumoniae, 10031, 18 h

SMILES | MIC [1] | MIC [2] | MIC [3] | MIC [4] | MIC [5] | MIC [6] | MIC [7]
N#Cc1ccccc1-n1ccc2c3c(N)nc(N)nc3ccc21 [Example 73] | 0.122 µg/mL (≈ 0.406 µM) | 0.122 µg/mL (≈ 0.406 µM) | 0.031 µg/mL (≈ 0.103 µM) | 0.0152 µg/mL (≈ 0.0506 µM) | 0.488 µg/mL (≈ 1.62 µM) | 0.0038 µg/mL (≈ 0.0127 µM) | 0.0152 µg/mL (≈ 0.0506 µM)
Cn1c(-c2ccccc2)cc2c3c(N)nc(N)nc3ccc21 [Example 106, 7-Methyl-8-phenyl-7H-pyrrolo[3,2-f]-quinazoline-1,3-diamine] | > 250 µg/mL | > 250 µg/mL | 62.5 µg/mL (≈ 216 µM) | 125 µg/mL (≈ 432 µM) | > 250 µg/mL | 31.3 µg/mL (≈ 108 µM) | 3.9 µg/mL (≈ 13.5 µM)
Cc1noc(C)c1Cn1ccc2c3c(N)nc(N)nc3ccc21 [Example 52] | 1.95 µg/mL (≈ 6.32 µM) | 0.976 µg/mL (≈ 3.17 µM) | 1.95 µg/mL (≈ 6.32 µM) | 0.976 µg/mL (≈ 3.17 µM) | 3.9 µg/mL (≈ 12.6 µM) | 0.0152 µg/mL (≈ 0.0493 µM) | 0.244 µg/mL (≈ 0.791 µM)
Cc1cc(-n2ccc3c4c(N)nc(N)nc4ccc32)c2ccccc2n1 [Example 91] | 1.95 µg/mL (≈ 5.73 µM) | 1.95 µg/mL (≈ 5.73 µM) | 0.061 µg/mL (≈ 0.179 µM) | 0.061 µg/mL (≈ 0.179 µM) | 3.9 µg/mL (≈ 11.5 µM) | 0.031 µg/mL (≈ 0.0911 µM) | 0.061 µg/mL (≈ 0.179 µM)
COc1cccc(Cn2ccc3c4c(N)nc(N)nc4ccc32)c1OC [Example 35] | 15.6 µg/mL (≈ 44.6 µM) | 0.488 µg/mL (≈ 1.4 µM) | 0.488 µg/mL (≈ 1.4 µM) | 0.244 µg/mL (≈ 0.698 µM) | 7.81 µg/mL (≈ 22.4 µM) | 0.122 µg/mL (≈ 0.349 µM) | 0.488 µg/mL (≈ 1.4 µM)
Nc1nc(N)c2c(ccc3c2ccn3CC=Cc2ccccc2)n1 [Example 57] | 15.6 µg/mL (≈ 49.5 µM) | 3.9 µg/mL (≈ 12.4 µM) | 1.95 µg/mL (≈ 6.18 µM) | 0.976 µg/mL (≈ 3.09 µM) | 7.81 µg/mL (≈ 24.8 µM) | 0.122 µg/mL (≈ 0.387 µM) | 0.488 µg/mL (≈ 1.55 µM)
Cc1nc2ccccc2nc1-n1ccc2c3c(N)nc(N)nc3ccc21 [Example 92] | > 250 µg/mL | 7.81 µg/mL (≈ 22.9 µM) | 1.95 µg/mL (≈ 5.71 µM) | 0.488 µg/mL (≈ 1.43 µM) | > 250 µg/mL | 0.122 µg/mL (≈ 0.357 µM) | 0.976 µg/mL (≈ 2.86 µM)
Cc1cc2c3c(N)nc(N)nc3ccc2n1Cc1cccc(C#N)c1 [Example 101] | 3.9 µg/mL (≈ 11.9 µM) | 0.488 µg/mL (≈ 1.49 µM) | 0.122 µg/mL (≈ 0.372 µM) | 0.061 µg/mL (≈ 0.186 µM) | 3.9 µg/mL (≈ 11.9 µM) | 0.0038 µg/mL (≈ 0.0116 µM) | 0.061 µg/mL (≈ 0.186 µM)
Nc1ccc(-n2ccc3c4c(N)nc(N)nc4ccc32)cc1 [Example 96, 7-(4-Aminophenyl)-7H-pyrrolo[3,2-f]-quinazaline-1,3-diamine] | 0.488 µg/mL (≈ 1.68 µM) | 0.244 µg/mL (≈ 0.84 µM) | 0.488 µg/mL (≈ 1.68 µM) | 0.244 µg/mL (≈ 0.84 µM) | 0.976 µg/mL (≈ 3.36 µM) | 0.0152 µg/mL (≈ 0.0524 µM) | 0.031 µg/mL (≈ 0.107 µM)
Nc1nc(N)c2c(ccc3c2ccn3-c2nc3ccccc3s2)n1 [Example 97, 7-(2-Benzothiazolyl)-7H-pyrrolo-[3,2-f]quinazoline-1,3-diamine] | > 250 µg/mL | > 250 µg/mL | 250 µg/mL (≈ 752 µM) | 125 µg/mL (≈ 376 µM) | > 250 µg/mL | 0.488 µg/mL (≈ 1.47 µM) | 62.5 µg/mL (≈ 188 µM)
CCOC(=O)c1ccc(-n2ccc3c4c(N)nc(N)nc4ccc32)cc1 [Example 75] | > 250 µg/mL | > 250 µg/mL | 125 µg/mL (≈ 360 µM) | 7.81 µg/mL (≈ 22.5 µM) | > 250 µg/mL | 0.122 µg/mL (≈ 0.351 µM) | 250 µg/mL (≈ 720 µM)
Nc1nc(N)c2c(ccc3c2ccn3Cc2ccc3ccccc3c2Br)n1 [Example 60] | > 250 µg/mL | > 250 µg/mL | 31.3 µg/mL (≈ 74.8 µM) | 15.6 µg/mL (≈ 37.3 µM) | > 250 µg/mL | 0.488 µg/mL (≈ 1.17 µM) | 15.6 µg/mL (≈ 37.3 µM)
Cc1cc2c3c(N)nc(N)nc3ccc2n1C [Example 99] | 1.95 µg/mL (≈ 8.58 µM) | 0.244 µg/mL (≈ 1.07 µM) | 31.3 µg/mL (≈ 138 µM) | 31.3 µg/mL (≈ 138 µM) | 0.976 µg/mL (≈ 4.29 µM) | 0.061 µg/mL (≈ 0.268 µM) | 0.244 µg/mL (≈ 1.07 µM)
Cc1cc2c3c(N)nc(N)nc3ccc2n1Cc1ccc(C#N)cc1 [Example 102] | 7.81 µg/mL (≈ 23.8 µM) | 1.95 µg/mL (≈ 5.94 µM) | 0.976 µg/mL (≈ 2.97 µM) | 0.976 µg/mL (≈ 2.97 µM) | 31.3 µg/mL (≈ 95.3 µM) | 0.061 µg/mL (≈ 0.186 µM) | 0.244 µg/mL (≈ 0.743 µM)
Nc1nc(N)c2c(ccc3c2ccn3Cc2ccc(C(F)(F)F)cc2)n1 [Example 13] | 15.6 µg/mL (≈ 43.7 µM) | 3.9 µg/mL (≈ 10.9 µM) | 1.95 µg/mL (≈ 5.46 µM) | 0.976 µg/mL (≈ 2.73 µM) | 31.3 µg/mL (≈ 87.6 µM) | 0.031 µg/mL (≈ 0.0868 µM) | 0.976 µg/mL (≈ 2.73 µM)
CS(=O)(=O)c1ccc(-n2ccc3c4c(N)nc(N)nc4ccc32)cc1 [Example 74] | 7.81 µg/mL (≈ 22.1 µM) | 0.976 µg/mL (≈ 2.76 µM) | 0.976 µg/mL (≈ 2.76 µM) | 0.976 µg/mL (≈ 2.76 µM) | 15.6 µg/mL (≈ 44.1 µM) | 0.0152 µg/mL (≈ 0.043 µM) | 0.244 µg/mL (≈ 0.69 µM)
CCOc1ccc(Cn2ccc3c4c(N)nc(N)nc4ccc32)cc1 [Example 40] | 7.81 µg/mL (≈ 23.4 µM) | 1.95 µg/mL (≈ 5.85 µM) | 1.95 µg/mL (≈ 5.85 µM) | 0.488 µg/mL (≈ 1.46 µM) | 7.81 µg/mL (≈ 23.4 µM) | 0.122 µg/mL (≈ 0.366 µM) | 3.9 µg/mL (≈ 11.7 µM)
